The values below come from US20100184703A1, “USE OF PEPTIDE DERIVATIVES FOR TREATING PATHOLOGIES RESULTING FROM ISCHEMIA” (CHIESI FARMACEUTICI S.p.A., priority 2007, published 2010).

This assay concerns ANF, BNP, fibronectin, β-MHC, TNFR1, TNFR2, TNFα, caspase-2 mRNA. The assay is described as follows: Quantitative RT-PCR of heart failure, fibrosis, hypertrophy and TNFα signaling markers after ischemia/reperfusion. Format: in vivo, rat. Particulars: IR model. The procedure: In a second series of experiments, quantitative RT-PCR was performed to evaluate the level of expression of 2 markers of heart failure, Atrial Natriuretic Factor (ANF) and Brain Natriuretic Factor (BNP) as well as a marker of myocardial fibrosis, fibronectine, and myocardial hypertrophy, βMHC. […] B. mRNA expression levels of fibronectin a marker of fibrosis development, and β-Myosin Heavy Chain (β-MHC) a marker for hypertrophy development

Where [1] appears, read: increase in vehicle-injected animals.

Turning to Etanercept, under setting [1], the “mRNA expression level of TNFα” value is recorded as “not by Etanercept”, the “mRNA expression level of TNFα receptor 2 (TNFR2)” value is on record as “not by Etanercept” and the “mRNA expression level of caspase-2” value is “not by Etanercept”. The “mRNA expression level of fibronectin” value (marker of fibrosis development) is “could only prevent fibrosis development”. For the setting “marker of heart failure”, the “mRNA expression level of Atrial Natriuretic Factor (ANF)” value is on record as “significant increase” and the “mRNA expression level of brain natriuretic peptide (BNP)” value was “significant increase”.
